Patent publication US20140066394A1, “Substituted 6-(Benzylamino) Purine Riboside Derivatives, Use Thereof and Compositions Containing These Derivatives” (Biopatterns, S.R.O, priority 2009, published 2014)

Test: Solubility noted on isolation of the product
Assay type: physicochemical
Details: qualitative, solvent as stated
Method: 2-Benzylmercapto-6-(2-hydroxy-3-methoxybenzylamino)purine riboside (1.18 g) was dissolved in liquid ammonia (125 mL) to yield a clear yellow solution. […]. Sodium was added in small portions until the blue colouration persisted for 15 mins A small amount of solid ammonium chloride was added cautiously to remove excess Na. The ammonia was evaporated to a small volume on a hot plate and ether (125 mL) added (to remove bibenzyl formed as a by-product). After most of the remaining ammonia had been evolved the ether extract was extracted with water (2×65 mL). The aqueous extrakt (at pH 12 to 13) was adjusted to 5 with AcOH cooling to below 10 on dry ice. A creamy solid precipitated. The solid was filtered, washed thoroughly with water and dried overnight over calcium chloride to yield a virtually white, very light powder. Yield: 760 mg. 2-Mercapto-6-(2-hydroxy-3-methoxybenzylamino)purine riboside gives a sharp, symmetrical peak on HPLC (300 nm) and moves readily on TLC in MeOH/chloroform mixtures. […] EtOH solution develops strong yellow colour on standing at room temperature for several days.
2-Methylmercapto-6-chloropurine riboside (3.3 g, 10 mmol) was refluxed with 2-hydroxy-3-methoxybenzylamine ([…], 12 5 mmol) in butanol (100 mL) containing triethylamine (3.2 mL) for 2 h. The butanol was removed under vacuum at 50 to 60° C. […]

solubility	Structure (SMILES)
very soluble in methanol and water	COc1cccc(CNc2nc(SC)nc3c2ncn3[C@@H]2O[C@H](CO)[C@@H](O)[C@H]2O)c1O [Compound 87, 2-Methylmercapto-6-(2-hydroxy-3-methoxybenzylamino)purine riboside]
soluble in EtOH	COc1cccc(CNc2nc(S)nc3c2ncn3[C@@H]2O[C@H](CO)[C@@H](O)[C@H]2O)c1O [Compound 71, 2-Mercapto-6-(2-hydroxy-3-methoxybenzylamino)purine riboside]
